Experimental data reported in patent US11161826B2, “Manufacturing methods and polymorphs of a thiazoline anti-hyperalgesic agent” (ACADIA PHARMACEUTICALS INC., priority 2019, dated 2021).
Where a name gives a salt, the structure may show the parent alone.

Tests used:
Assay type in all cases: physicochemical
[1] = Solubility in organic/aqueous solvents
[2] = Gravimetric Vapor Sorption (GVS)
Excerpt: The sample is hygroscopic.

[3] = Thermogravimetric Analysis (TGA) decomposition
Excerpt: The combined DSC/TGA results for (R)-2-(2-hydroxyphenylamino)-5,5-dimethyl-4,5-dihydrothiazole-4-carboxylic acid mono-hydrochloride is provided in FIG. 7. […] An amorphous form of Compound 1 can be made by, for example, lyophilizing crystalline Compound 1 as described in Example 4 herein.

solubility ([1]; 10% water/tetrahydrofuran): sparingly soluble
solubility ([1]; 10% water:iso-propyl acetate): sparingly soluble
solubility ([1]; acetone): less than sparingly soluble
solubility ([1]; ethanol): sparingly soluble
solubility ([1]; ethyl acetate): less than sparingly soluble
solubility ([1]; iso-propanol): sparingly soluble
solubility ([1]; iso-propyl acetate): less than sparingly soluble
solubility ([1]; methanol): freely soluble
solubility ([1]; n-heptane): less than sparingly soluble
solubility ([1]; tert-butyl alcohol): less than sparingly soluble
solubility ([1]; tert-butyl alcohol:water (1:1)): freely soluble
solubility ([1]; tert-butyl methyl ether): less than sparingly soluble
solubility ([1]; tetrahydrofuran): less than sparingly soluble
solubility ([1]; toluene): less than sparingly soluble
solubility ([1]; water): sparingly soluble
hygroscopicity ([2]; GVS): hygroscopic
GVS uptake ([2]; between 0% and 90% RH): 6%
TGA start of decomposition (total 5% mass loss) [3]: ~202 °C
Compound: CC1(C)SC(Nc2ccccc2O)=N[C@@H]1C(=O)O [Compound 1, (R)-2-(2-hydroxyphenylamino)-5,5-dimethyl-4,5-dihydrothiazole-4-carboxylic acid mono-hydrochloride]
